{
  "source": "patent US12516289B2",
  "about": "“Methods of producing T memory stem cell populations” (The United States of America, as represented by the …, priority 2012, dated 2026)",
  "tested_on": "CD45RO−CD62L+ naïve CD8+ T cells",
  "assay": "Activation of naïve CD8+ T cells in the presence of the GSK-3β inhibitor, phenotypic analysis",
  "type": "cell-based, human",
  "experimental": "Candidate human TSCM cells were generated by activating CD45RO^−CD62L^+ naïve CD8^+ T cells in the presence of the GSK-3β inhibitor TWS119. […] To determine whether the CD45RO^−CD62L^+ T cells generated in the presence of TWS119 were truly naïve cells or had acquired memory traits, phenotypic analysis was performed using established markers of T cell activation and differentiation (Appay et al., Cytometry A 73: 975-983 (2008)).",
  "data": [
    {"smiles": "Nc1cccc(-c2cc3c(Oc4cccc(O)c4)ncnc3[nH]2)c1", "note": "[TWS119, 3-[[6-(3-aminophenyl)-7H-pyrrolo[2,3-d]pyrimidin-4-yl]oxy]phenol]", "values": [
      {"measurement": "phenotype of T cells after culture (CD45RO/CD62L)", "setting": "naïve CD8+ T cells activated in presence of TWS119, after 2 weeks", "result": "majority of T cells cultured with TWS119 retained a CD45RO^−CD62L^+ naïve-like phenotype"},
      {"measurement": "expression of CD95 and IL-2Rβ by TWS119-generated naïve-like T cells", "setting": "phenotypic analysis, compared with TN and memory T cells", "result": "expressed levels of CD95 and IL-2Rβ similar to those observed in memory T cells"}
    ]}
  ]
}
